# Test results taken from patent US10875874B2, “Ginkgolide B derivative and preparation method and use thereof” (Chengdu Baiyu Ginkgolide Pharmaceuticals Co., Ltd., priority 2015, dated 2020).
# Marks after values point to notes of the source that are not given here.
# Assays:
# [1] = Weekly food intake of SHR rats; type: in vivo, rat
# Experimental: (§1) 2.1 Grouping and administration of animals: 112 SHR rats (the female and male SHR rats are half and half, and the female rats are not pregnant) with the body weight of 200-250 g are taken, the rats are enabled to adapt to a laboratory for a period of 5 d, blood pressure is measured once at a day to enable the rats to adapt to the environment and detect stimulation. Then, weighing and numbering are carried out, and the SHR rats are equally divided into 14 groups randomly (each group comprises 8 rats), i.e., an SHR rat model control group, a positive control group (captopril, 27 mg/kg), a BZ large-dose group (120 mg/kg/d), a BZ small-dose group (60 mg/kg/d), a BA large-dose group (120 mg/kg/d), a BA small-dose group (60 mg/kg/d), a BL large-dose group (120 mg/kg/d), a BL small-dose group (60 mg/kg/d), a BM large-dose group (120 mg/kg/d), a BM small-dose group (60 mg/kg/d), a BD large-dose group (120 mg/kg/d), a BD small-dose group (60 mg/kg/d), a GB large-dose group (120 mg/kg/d) and a GB small-dose group (60 mg/kg/d). In addition, 8 healthy Wistar rats are taken as a normal control group. Intragastric administration is performed on the rats of each drug group separately according to the above-mentioned doses by 1 mL/100 g body weight, intragastric administration is performed on the rats of the normal control group and the rats of the SHR rat model control group with an equal volume of distilled water, and administration is performed continuously for 8 weeks.
# (§2) 2.2 General state: during observation, conditions such as mind, water drinking, food intake, bowel movement, hair color, body weight and range of motion of rats are observed. Irritable degrees of the rats are divided into III levels: a level I means that the rats are free of obvious response when necks of the rats are seized; a level II means that the rats scream and startle when the necks of the rats are seized; and a level III means that the rats bite or rats of same cages frequently fight when the necks of the rats are seized.
# (§3) 3.1 Influence on general state of spontaneously hypertensive rats: the rats of the normal control group are normal in food intake, drinking and motion conditions, sensitive in response, healthy and glossy in hair color, good in mental state and free of any unusual response; the rats of the SHR model group gradually present that back hair is fluffy, clustered and dim, the appetite is reduced, the body weight is reduced, the mind is dispirited and irritable, and the rats are prone to the behaviors of intense resisting, attacking and so on during administration and blood pressure detection, and irritable degrees are mostly changed to a level II and a level III from a level I; and after single administration of ginkgolide B and derivatives thereof, behavioral general state observations of rats of each group are free of obvious difference from those of the model control group.
# [2] = test system: spontaneously hypertensive rats (SHR); assay: Caudal artery systolic pressure of spontaneously hypertensive rats, single administration; type: in vivo, rat; conditions: x ± s, n = 8
# Experimental: as §1
# (§4) 2.3 Blood pressure measuring: caudal artery systolic pressure of rats is measured with a Bp-6 noninvasive blood pressure measuring system. Under the condition that the rats are calm, the systolic pressure is continuously measured for 3 times, and the average value of the measured systolic pressure is taken as a pressure measuring result. Observation indexes: (1) single-administration pressure lowering effect: blood pressure of the rats is measured before administration and blood pressure conditions are measured 30 min, 60 min, 90 min and 120 min after first administration; and (2) continuous-administration pressure lowering condition: blood pressure is separately measured 30 min after administration at 1 d, 7 d, 13 d, 19 d, 25 d, 35 d, 49 d and 56 d, the blood pressure is repeatedly measured for 3 times at a day, and the average value of obtained values is taken as a final blood pressure value.
# [3] = Weekly body weight of SHR rats; type: in vivo, rat
# Experimental: as §1, §2, §3
# [4] = test system: spontaneously hypertensive rats (SHR); assay: Caudal artery systolic pressure of spontaneously hypertensive rats, 8 weeks of continuous medication; type: in vivo, rat; conditions: x ± s, n = 8
# Experimental: as §1, §4
# Water solubility test = conditions: purified water, thermodynamic from solid
# Experimental: Measuring method: samples are ground to obtain fine powder, target compounds are quantitatively weighed, the weighed compounds are added into purified water, and the solubility of the compounds is investigated by ultrasonics.
# [5] = 60 mg/kg/d intragastric, week 0
# [6] = 60 mg/kg/d intragastric, week 1
# [7] = 60 mg/kg/d intragastric, week 2
# [8] = 60 mg/kg/d intragastric, week 3
# [9] = 60 mg/kg/d intragastric, week 4
# [10] = 60 mg/kg/d intragastric, week 5
# [11] = 60 mg/kg/d intragastric, week 6
# [12] = 60 mg/kg/d intragastric, week 7
# [13] = 60 mg/kg/d intragastric, week 8
# [14] = 120 mg/kg/d intragastric, week 0
# [15] = 120 mg/kg/d intragastric, week 1
# [16] = 120 mg/kg/d intragastric, week 2
# [17] = 120 mg/kg/d intragastric, week 3
# [18] = 120 mg/kg/d intragastric, week 4
# [19] = 120 mg/kg/d intragastric, week 5
# [20] = 120 mg/kg/d intragastric, week 6
# [21] = 120 mg/kg/d intragastric, week 7
# [22] = 120 mg/kg/d intragastric, week 8
smiles,measurement,setting,value
C[C@@H]1C(=O)O[C@H]2[C@H](O)[C@@]34C5C[C@@H](C(C)(C)C)C36[C@@H](OC(=O)[C@@H]6OC(=O)[C@H](c3ccccc3Cl)N3CCc6sccc6C3)O[C@@]4(C(=O)O5)[C@@]12O (some centres unmarked) [BL],Average dairy food intake,[1]; [5],18.4 g/day
same,Average dairy food intake,[1]; [6],19.4^▴ g/d
same,Average dairy food intake,[1]; [7],20.5^▴▴ g/d
same,Average dairy food intake,[1]; [8],21.0^▴▴ g/d
same,Average dairy food intake,[1]; [9],20.9^▴▴ g/d
same,Average dairy food intake,[1]; [10],21.9^▴▴ g/d
same,Average dairy food intake,[1]; [11],23.5^▴▴ g/d
same,Average dairy food intake,[1]; [12],24.5^▴▴ g/d
same,Average dairy food intake,[1]; [13],25.1^▴▴ g/d
same,Average dairy food intake,[1]; [14],18.6 g/day
same,Average dairy food intake,[1]; [15],20.0^▴ g/d
same,Average dairy food intake,[1]; [16],20.8^▴▴ g/d
same,Average dairy food intake,[1]; [17],21.9^▴▴ g/d
same,Average dairy food intake,[1]; [18],22.7^▴▴ g/d
same,Average dairy food intake,[1]; [19],23.5^▴▴ g/d
same,Average dairy food intake,[1]; [20],24.6^▴▴ g/d
same,Average dairy food intake,[1]; [21],25.1^▴▴ g/d
same,Average dairy food intake,[1]; [22],26.7^▴▴ g/d
same,Systolic pressure,"[2]; 60 mg/kg intragastric single administration, 30 min",158.36 ± 10.54 mmHg
same,Systolic pressure,"[2]; 60 mg/kg intragastric single administration, 60 min",154.68 ± 12.48 mmHg
same,Systolic pressure,"[2]; 60 mg/kg intragastric single administration, 90 min",152.74 ± 12.58 mmHg
same,Systolic pressure,"[2]; 60 mg/kg intragastric single administration, 120 min",152.04 ± 10.02 mmHg
same,Systolic pressure,"[2]; 60 mg/kg intragastric single administration, before administration",165.68 ± 16.35 mmHg
same,Systolic pressure,"[2]; 120 mg/kg intragastric single administration, 30 min",148.01 ± 5.98 mmHg
same,Systolic pressure,"[2]; 120 mg/kg intragastric single administration, 60 min",151.36 ± 9.45 mmHg
same,Systolic pressure,"[2]; 120 mg/kg intragastric single administration, 90 min",152.95 ± 12.54 mmHg
same,Systolic pressure,"[2]; 120 mg/kg intragastric single administration, 120 min",151.98 ± 9.26 mmHg
same,Systolic pressure,"[2]; 120 mg/kg intragastric single administration, before administration",164.25 ± 11.69 mmHg
same,Body weight,[3]; [5],230.9 g
same,Body weight,[3]; [6],236.4 g
same,Body weight,[3]; [7],243.1 g
same,Body weight,[3]; [8],252.8 g
same,Body weight,[3]; [9],260.9^▴▴ g
same,Body weight,[3]; [10],265.8^▴▴ g
same,Body weight,[3]; [11],270.6^▴ g
same,Body weight,[3]; [12],277.3^▴▴ g
same,Body weight,[3]; [13],285.4^▴▴ g
same,Body weight,[3]; [14],230.6 g
same,Body weight,[3]; [15],251.8^▴▴ g
same,Body weight,[3]; [16],257.3^▴▴ g
same,Body weight,[3]; [17],264.1^▴▴ g
same,Body weight,[3]; [18],270.5^▴▴ g
same,Body weight,[3]; [19],281.7^▴▴ g
same,Body weight,[3]; [20],290.3^▴▴ g
same,Body weight,[3]; [21],302.8^▴▴ g
same,Body weight,[3]; [22],315.2^▴▴ g
same,Systolic pressure,"[4]; 60 mg/kg/d intragastric continuous, 1 d, 30 min after administration",154.08 ± 11.54 mmHg
same,Systolic pressure,"[4]; 60 mg/kg/d intragastric continuous, 7 d, 30 min after administration",156.92 ± 9.82 mmHg
same,Systolic pressure,"[4]; 60 mg/kg/d intragastric continuous, 13 d, 30 min after administration",156.07 ± 8.52 mmHg
same,Systolic pressure,"[4]; 60 mg/kg/d intragastric continuous, 19 d, 30 min after administration",153.96 ± 11.07 mmHg
same,Systolic pressure,"[4]; 60 mg/kg/d intragastric continuous, 25 d, 30 min after administration",154.57 ± 9.74 mmHg
same,Systolic pressure,"[4]; 60 mg/kg/d intragastric continuous, 35 d, 30 min after administration",153.67 ± 11.58 mmHg
same,Systolic pressure,"[4]; 60 mg/kg/d intragastric continuous, 49 d, 30 min after administration",149.68 ± 10.42 mmHg
same,Systolic pressure,"[4]; 60 mg/kg/d intragastric continuous, 56 d, 30 min after administration",153.62 ± 9.47 mmHg
same,Systolic pressure,"[4]; 60 mg/kg/d intragastric continuous, before administration",165.68 ± 16.35 mmHg
same,Systolic pressure,"[4]; 120 mg/kg/d intragastric continuous, 1 d, 30 min after administration",153.56 ± 8.15 mmHg
same,Systolic pressure,"[4]; 120 mg/kg/d intragastric continuous, 7 d, 30 min after administration",152.74 ± 10.25 mmHg
same,Systolic pressure,"[4]; 120 mg/kg/d intragastric continuous, 13 d, 30 min after administration",149.52 ± 10.24 mmHg
same,Systolic pressure,"[4]; 120 mg/kg/d intragastric continuous, 19 d, 30 min after administration",149.05 ± 11.09 mmHg
same,Systolic pressure,"[4]; 120 mg/kg/d intragastric continuous, 25 d, 30 min after administration",147.09 ± 12.68 mmHg
same,Systolic pressure,"[4]; 120 mg/kg/d intragastric continuous, 35 d, 30 min after administration",147.52 ± 10.64 mmHg
same,Systolic pressure,"[4]; 120 mg/kg/d intragastric continuous, 49 d, 30 min after administration",150.94 ± 11.06 mmHg
same,Systolic pressure,"[4]; 120 mg/kg/d intragastric continuous, 56 d, 30 min after administration",149.76 ± 12.63 mmHg
same,Systolic pressure,"[4]; 120 mg/kg/d intragastric continuous, before administration",164.25 ± 11.69 mmHg
same,solubility,Water solubility test,200 µg/mL
